Experimental data from US11331369B2, “Endoparasitic depsipeptides” (Zoetis Services LLC, priority 2017, dated 2022).

Assays:
[1] = test system: microfilariae of Dirofilaria immitis; assay: Dirofilaria immitis, Microfilaria (DiMF) In vitro Assay; type: cell-based; settings: 72 h, read-out: DiMF Minimum Effective Dose (MED), approximately 72 hours incubation, microfilariae assessed for survival or paralysis
[2] = test system: 4th stage larvae (L4) of Dirofilaria immitis; assay: Dirofilaria immitis, L4 Stage (DiL4) In Vitro Assay; type: cell-based; settings: Dirofilaria immitis, 72 h, read-out: DiL4 Minimum Effective Dose (MED), approximately 72 hours incubation; L4 larvae assessed for survival or paralysis

SMILES | minimal effective concentration [1] [µM] | minimal effective concentration [2] [µM]
CC(C)C[C@H]1C(=O)O[C@H](Cc2ccc(Cn3nc(C#N)cc3C#N)cc2)C(=O)N(C)[C@@H](CC(C)C)C(=O)O[C@H](C)C(=O)N(C)[C@@H](CC(C)C)C(=O)O[C@H](Cc2ccc(Cn3cc(Br)c(C#N)n3)cc2)C(=O)N(C)[C@@H](CC(C)C)C(=O)O[C@H](C)C(=O)N1C [Example 1a-1, 1-(4-(((2R,5S,8R,11S,14R,17S,20R,23S)-14-(4-((4-bromo-3-cyano-1H-pyrazol-1-yl)methyl)benzyl)-5,11,17,23-tetraisobutyl-4,8,10,16,20,22-hexamethyl-3,6,9,12,15,18,21,24-octaoxo-1,7,13,19-tetraoxa-4,10,16,22-tetraazacyclotetracosan-2-yl)methyl)benzyl)-1H-pyrazole-3,5-dicarbonitrile] | 0.001 to 0.01 | 0.0001 to 0.001
CC(C)C[C@H]1C(=O)O[C@H](Cc2ccc(Cn3nc(C(F)F)cc3C3CC3)cc2)C(=O)N(C)[C@@H](CC(C)C)C(=O)O[C@H](C)C(=O)N(C)[C@@H](CC(C)C)C(=O)O[C@H](Cc2ccc(Cn3nc(C#N)cc3C#N)cc2)C(=O)N(C)[C@@H](CC(C)C)C(=O)O[C@H](C)C(=O)N1C [Example 1a-7, 1-(4-(((2R,5S,8R,11 S,14R,17S,20R,23S)-14-(4-((5-cyclopropyl-3-(difluoromethyl)-1H-pyrazol-1-yl)methyl)benzyl)-5,11,17,23-tetraisobutyl-4,8,10,16,20,22-hexamethyl-3,6,9,12,15,18,21,24-octaoxo-1,7,13,19-tetraoxa-4,10,16,22-tetraazacyclotetracosan-2-yl)methyl)benzyl)-1H-pyrazole-3,5-dicarbonitrile] | 0.001 to 0.01 | ≤ 0.0001
CC(C)C[C@H]1C(=O)O[C@H](Cc2ccc(Cn3nccc3-c3ccccc3)cc2)C(=O)N(C)[C@@H](CC(C)C)C(=O)O[C@H](C)C(=O)N(C)[C@@H](CC(C)C)C(=O)O[C@H](Cc2ccc(Cn3nc(C#N)cc3C#N)cc2)C(=O)N(C)[C@@H](CC(C)C)C(=O)O[C@H](C)C(=O)N1C [Example 1a-12, 1-(4-(((2R,5S,8R,11S,14R,17S,20R,23S)-5,11,17,23-tetraisobutyl-4,8,10,16,20,22-hexamethyl-3,6,9,12,15,18,21,24-octaoxo-14-(4-((5-phenyl-1H-pyrazol-1-yl)methyl)benzyl)-1,7,13,19-tetraoxa-4,10,16,22-tetraazacyclotetracosan-2-yl)methyl)benzyl)-1H-pyrazole-3,5-dicarbonitrile] | 0.01 to 0.1 | 0.0001 to 0.001
CC(C)C[C@H]1C(=O)O[C@H](Cc2ccc(Cn3nccc3C3CCCC3)cc2)C(=O)N(C)[C@@H](CC(C)C)C(=O)O[C@H](C)C(=O)N(C)[C@@H](CC(C)C)C(=O)O[C@H](Cc2ccc(Cn3ccc(C4CCCC4)n3)cc2)C(=O)N(C)[C@@H](CC(C)C)C(=O)O[C@H](C)C(=O)N1C [Example 1a-34, (3S,6R,9S,12R,15S,18R,21S,24R)-6-(4-((3-cyclopentyl-1H-pyrazol-1-yl)methyl)benzyl)-18-(4-((5-cyclopentyl-1H-pyrazol-1-yl)methyl)benzyl)-3,9,15,21-tetraisobutyl-4,10,12,16,22,24-hexamethyl-1,7,13,19-tetraoxa-4,10,16,22-tetraazacyclotetracosan-2,5,8,11,14,17,20,23-octaone] |  | 0.001 to 0.01
Cc1nn(Cc2ccc(C[C@H]3OC(=O)[C@H](CC(C)C)N(C)C(=O)[C@@H](C)OC(=O)[C@H](CC(C)C)N(C)C(=O)[C@@H](Cc4ccc(Cn5nc(C)c(Cl)c5C)cc4)OC(=O)[C@H](CC(C)C)N(C)C(=O)[C@@H](C)OC(=O)[C@H](CC(C)C)N(C)C3=O)cc2)c(C)c1Cl [Example 1b-51, (3S,6R,9S,12R,15S,18R,21S,24R)-6,18-bis(4-((4-chloro-3,5-dimethyl-1H-pyrazol-1-yl)methyl)benzyl)-3,9,15,21-tetraisobutyl-4,10,12,16,22,24-hexamethyl-1,7,13,19-tetraoxa-4,10,16,22-tetraazacyclotetracosan-2,5,8,11,14,17,20,23-octaone] |  | 0.0001 to 0.001
CC(C)C[C@H]1C(=O)O[C@H](Cc2ccc(Cn3cc(OCC4CC4)cn3)cc2)C(=O)N(C)[C@@H](CC(C)C)C(=O)O[C@H](C)C(=O)N(C)[C@@H](CC(C)C)C(=O)O[C@H](Cc2ccc(Cn3cc(OCC4CC4)cn3)cc2)C(=O)N(C)[C@@H](CC(C)C)C(=O)O[C@H](C)C(=O)N1C [Example 1b-146, (3S,6R,9S,12R,15S,18R,21S,24R)-6,18-bis(4-((4-(cyclopropylmethoxy)-1H-pyrazol-1-yl)methyl)benzyl)-3,9,15,21-tetraisobutyl-4,10,12,16,22,24-hexamethyl-1,7,13,19-tetraoxa-4,10,16,22-tetraazacyclotetracosan-2,5,8,11,14,17,20,23-octaone] |  | 0.001 to 0.01
CC(C)C[C@H]1C(=O)O[C@H](Cc2ccc(Cn3nccc3-c3ccc(Cl)cc3)cc2)C(=O)N(C)[C@@H](CC(C)C)C(=O)O[C@H](C)C(=O)N(C)[C@@H](CC(C)C)C(=O)O[C@H](Cc2ccc(Cn3nccc3-c3ccc(Cl)cc3)cc2)C(=O)N(C)[C@@H](CC(C)C)C(=O)O[C@H](C)C(=O)N1C [Example 1b-153, (3S,6R,9S,12R,15S,18R,21S,24R)-6,18-bis(4-((5-(4-chlorophenyl)-1H-pyrazol-1-yl)methyl)benzyl)-3,9,15,21-tetraisobutyl-4,10,12,16,22,24-hexamethyl-1,7,13,19-tetraoxa-4,10,16,22-tetraazacyclotetracosan-2,5,8,11,14,17,20,23-octaone] |  | 0.001 to 0.01
COc1cc(C)n(Cc2ccc(C[C@H]3OC(=O)[C@H](CC(C)C)N(C)C(=O)[C@@H](C)OC(=O)[C@H](CC(C)C)N(C)C(=O)[C@@H](Cc4ccc(Cn5nc(OC)cc5C)cc4)OC(=O)[C@H](CC(C)C)N(C)C(=O)[C@@H](C)OC(=O)[C@H](CC(C)C)N(C)C3=O)cc2)n1 [Example 1b-168, (3S,6R,9S,12R,15S,18R,21S,24R)-3,9,15,21-tetraisobutyl-6,18-bis(4-((3-methoxy-5-methyl-1H-pyrazol-1-yl)methyl)benzyl)-4,10,12,16,22,24-hexamethyl-1,7,13,19-tetraoxa-4,10,16,22-tetraazacyclotetracosan-2,5,8,11,14,17,20,23-octaone] |  | 0.001 to 0.01
CCOc1cc(-c2ccccc2)nn1Cc1ccc(C[C@H]2OC(=O)[C@H](CC(C)C)N(C)C(=O)[C@@H](C)OC(=O)[C@H](CC(C)C)N(C)C(=O)[C@@H](Cc3ccc(Cn4nc(-c5ccccc5)cc4OCC)cc3)OC(=O)[C@H](CC(C)C)N(C)C(=O)[C@@H](C)OC(=O)[C@H](CC(C)C)N(C)C2=O)cc1 [Example 1b-178, (3S,6R,9S,12R,15S,18R,21S,24R)-6,18-bis(4-((5-ethoxy-3-phenyl-1H-pyrazol-1-yl)methyl)benzyl)-3,9,15,21-tetraisobutyl-4,10,12,16,22,24-hexamethyl-1,7,13,19-tetraoxa-4,10,16,22-tetraazacyclotetracosan-2,5,8,11,14,17,20,23-octaone] |  | 0.001 to 0.01
Cc1cc(C#N)nn1Cc1ccc(C[C@H]2OC(=O)[C@H](CC(C)C)N(C)C(=O)[C@@H](C)OC(=O)[C@H](CC(C)C)N(C)C(=O)[C@@H](Cc3ccc(Cn4nc(C#N)cc4C)cc3)OC(=O)[C@H](CC(C)C)N(C)C(=O)[C@@H](C)OC(=O)[C@H](CC(C)C)N(C)C2=O)cc1 [Example 1b-194, 1,1′-(((((2R,5S,8R,11S,14R,17S,20R,23S)-5,11,17,23-tetraisobutyl-4,8,10,16,20,22-hexamethyl-3,6,9,12,15,18,21,24-octaoxo-1,7,13,19-tetraoxa-4,10,16,22-tetraazacyclotetracosane-2,14-diyl)bis(methylene))bis(4,1-phenylene))bis(methylene))bis(5-methyl-1H-pyrazole-3-carbonitrile)] |  | 0.0001 to 0.001
CC(C)C[C@H]1C(=O)O[C@H](Cc2ccc(C(C)(C)n3cc(C4CC4)cn3)cc2)C(=O)N(C)[C@@H](CC(C)C)C(=O)O[C@H](C)C(=O)N(C)[C@@H](CC(C)C)C(=O)O[C@H](Cc2ccc(C(C)(C)n3cc(C4CC4)cn3)cc2)C(=O)N(C)[C@@H](CC(C)C)C(=O)O[C@H](C)C(=O)N1C [Example 1c-8, (3S,6R,9S,12R,15S,18R,21S,24R)-6,18-bis(4-(2-(4-cyclopropyl-1H-pyrazol-1-yl)propan-2-yl)benzyl)-3,9,15,21-tetraisobutyl-4,10,12,16,22,24-hexamethyl-1,7,13,19-tetraoxa-4,10,16,22-tetraazacyclotetracosan-2,5,8,11,14,17,20,23-octaone] |  | ≤ 0.0001
CC(C)C[C@H]1C(=O)O[C@H](Cc2ccc(Cn3ccnc3C(F)(F)F)cc2)C(=O)N(C)[C@@H](CC(C)C)C(=O)O[C@H](C)C(=O)N(C)[C@@H](CC(C)C)C(=O)O[C@H](Cc2ccc(Cn3ccnc3C(F)(F)F)cc2)C(=O)N(C)[C@@H](CC(C)C)C(=O)O[C@H](C)C(=O)N1C [Example 6-15, (3S,6R,9S,12R,15S,18R,21S,24R)-3,9,15,21-tetraisobutyl-4,6,10,16,18,22-hexamethyl-12,24-bis(4-((2-(trifluoromethyl)-1H-imidazol-1-yl)methyl)benzyl)-1,7,13,19-tetraoxa-4,10,16,22-tetraazacyclotetracosan-2,5,8,11,14,17,20,23-octaone] |  | 0.0001 to 0.001
CC(C)C[C@H]1C(=O)O[C@H](Cc2ccc(CN3CCOc4ccncc43)cc2)C(=O)N(C)[C@@H](CC(C)C)C(=O)O[C@H](C)C(=O)N(C)[C@@H](CC(C)C)C(=O)O[C@H](Cc2ccc(CN3CCOc4ccncc43)cc2)C(=O)N(C)[C@@H](CC(C)C)C(=O)O[C@H](C)C(=O)N1C [Example 9-63, (3S,6R,9S,12R,15S,18R,21S,24R)-6,18-bis[[4-(2,3-dihydropyrido[4,3-b][1,4]oxazin-4-ylmethyl)phenyl]methyl]-3,9,15,21-tetraisobutyl-4,10,12,16,22,24-hexamethyl-1,7,13,19-tetraoxa-4,10,16,22-tetrazacyclotetracosane-2,5,8,11,14,17,20,23-octaone] |  | 0.001 to 0.01
